Two compounds from article PMC11898563 (2025) can be followed below.

Experiment [1] concerns MST-DA-1 (DNA, aptamer) ATAGGAGTCACGACGACCAGAAAAATAATTTAAATTTTCTACCCAATGCTTTTCGCATAATATGTGCGTCTACCTCTTGA
Put plainly: microscale thermophoresis. The note with it: 150 mM NaCl, 2 mM MgCl2; 50 mM Tris, pH 7.4, room temperature. Background: In MST a laser heats a spot of the sample, and binding alters the fluorescence response.

In experiment [2] the test system is MST-OA-2 (DNA, aptamer) ATTTGACCATGTCGAGGGAGACGCGCAGTCGCTACCACCT
Put plainly: microscale thermophoresis. The following applies: 150 mM NaCl, 2 mM MgCl2; 50 mM Tris, pH 7.4, room temperature.

In experiment [3] the test system is MST-OA-1 (DNA, aptamer) GGTCACCAACAACAGGGAGCGCTACGCGAAGGGTCAATGTGACGTCATGCGGATGTGTGG
In words: microscale thermophoresis. The note with it: 150 mM NaCl, 2 mM MgCl2; 50 mM Tris, pH 7.5, room temperature.

Experiment [4] has as its system FRET-OA-2 (DNA, aptamer) ATTTGACCATGTCGAGGGAGACGCGCAGTCGCTACCACCT
Put plainly: fluorescence (FAM/BHQ-1 FRET) titration. The following applies: 150 mM NaCl, 2 mM MgCl2; 50 mM Tris, pH 7.4, 37 °C, 500 nM aptamer; exact value in Figure 1D.

Experiment [5] relates to APT-mid-BHQ1 (DNA, aptamer, internal BHQ1-dT at 29) ATTTGACCATGTCGAGGGAGACGCGCAGTCGCTACCACCT
In words: strand-displacement fluorescence (duplexed FRET). The note with it: FAM-11nt-C strand displaced; 1 h after OA addition.

For experiment [6], the system named is OA-2 (DNA, aptamer) ATTTGACCATGTCGAGGGAGACGCGCAGTCGCTACCACCT
In words: AuNP aggregation colorimetry. The following applies: NaCl added (100 mmol L^−1 stock); 1 μmol L^−1 aptamer, room temperature.

The test system of experiment [7] is FRET-OA-1 (DNA, aptamer) GGTCACCAACAACAGGGAGCGCTACGCGAAGGGTCAATGTGACGTCATGCGGATGTGTGG
In words: fluorescence (FAM/BHQ-1 FRET) titration. The note with it: 150 mM NaCl, 2 mM MgCl2; 50 mM Tris, pH 7.5, 37 °C, 500 nM aptamer; exact value in Figure 1C.

Broadly, the Kd is the concentration at which binding is half-saturated. A high value points to lower affinity. In experiment [1], `C/C(=C/C=C/[C@@H](C)C(=O)O)[C@H]1CN[C@H](C(=O)O)[C@H]1CC(=O)O` registered a Kd of 1180 ± 2030 nM.
On to `C=C1[C@@H](O)[C@@H]2O[C@]3(CC[C@H](/C=C/[C@@H](C)[C@@H]4CC(C)=C[C@@]5(O[C@H](C[C@@](C)(O)C(=O)O)CC[C@H]5O)O4)O3)CC[C@H]2O[C@@H]1[C@@H](O)C[C@H](C)[C@H]1O[C@@]2(CCCCO2)CC[C@H]1C`, for which the Kd is 257.25 ± 90.25 nM in experiment [2], 1260 ± 560 nM in experiment [3], below 800 nM in experiment [4] and below 800 nM in experiment [7]. Further, the binding entry in experiment [5] and in experiment [6] was “yes” each time.
